Measurements reported in US9840478B2 (MERCK SHARP & DOHME CORP., priority 2013, dated 2017).

Tested on: HIV-1 (H9IIIB strain)
Assay: Cell-based HIV infection assay using a reporter (Cell-Based), MT4-GFP cells
Conditions: Human immunodeficiency virus 1, MT4-GFP cells infected with HIV-1 H9IIIB; 50% normal human serum; mean of at least two independent experiments; read-out: Cell-based IP
Procedure: Cell-Based HIV Infection Assay Using a Reporter (“Cell-Based”):
MT4-GFP cells contain a stably integrated HIV long terminal repeat promoter directing the transcription of green fluorescent protein (GFP). When HIV infects the cell, GFP is produced and the cell becomes green. MT4-GFP cells (250,000 cells/ml) were bulk-infected with HIV-1 (H9IIIB strain) at low multiplicity of infection (MOI) in RPMI media, supplemented with 10% FBS for 24 hours. Cells were then washed once in RPMI plus 10% FBS and resuspended in RPMI plus 50% normal human serum (NHS). Test compounds were serial-diluted in DMSO using an ECHO liquid dispenser. A control well included a combination of three HIV drugs (an inhibitor of HIV protease, integrase strand transfer and a non-nucleoside reverse transcriptase inhibitor; triple drug). The infected MT4-GFP cells were added to a 384-well poly-D-lysine coated black plate with clear bottom in which the diluted test compounds were placed. The cells were seeded in the plate at 8,000 cells per well and the final DMSO concentration was 0.4%. Infected cells were quantified at both 24 and 48 hours post incubation using an Acumen eX3 plate reader. Viral reproductive ratio (R0) was determined using the number of infected cells at 48 hours divided by the number of infected cells at 24 hours. Percent viral growth inhibition was calculated by [1−(R−Rtripledrug)/(RDMSO−Rtripledrug)]*100. Compound potency IP or IC50 was determined with use of a 4-parameter dose response curve analysis.

N[C@H](C(=O)Nc1cncc(F)c1CC[C@H]1CNCCN1S(=O)(=O)c1ccccc1)[C@@H](c1ccc(Cl)cc1)c1cccc(OC(F)(F)F)c1 [Example 45, (βS)-4-chloro-N-(5-fluoro-4-{2-[(2S)-1-(phenylsulfonyl)piperazin-2-yl]ethyl}pyridin-3-yl)-β-[3-(trifluoromethoxy)phenyl]-L-phenylalaninamide]
IC50: 16 nM

CS(=O)(=O)c1ccc(S(=O)(=O)N2CCNC[C@@H]2CCc2c(F)cncc2NC(=O)C[C@@H](c2ccc(F)cc2)c2cc(F)cc(F)c2)cc1 [Example 313, (3S)-3-(3,5-difluorophenyl)-N-(5-fluoro-4-{2-[(2S)-1-{[4-(methylsulfonyl)phenyl]sulfonyl}piperazin-2-yl]ethyl}pyridin-3-yl)-3-(4-fluorophenyl)propanamide]
IC50: 48 nM

O=C(N[C@H](C(=O)Nc1cncc(F)c1CC[C@H]1CNCCN1S(=O)(=O)N1CCCC1)[C@@H](c1ccc(F)cc1)c1cc(F)cc(F)c1)C1CC1 [Example 86]
IC50: 13 nM

C[C@@H]1CNC[C@H](CCc2c(F)cccc2NC(=O)[C@@H](N)C(c2cccc(F)c2)c2cccc(F)c2)N1S(=O)(=O)c1ccccc1 [Example 133, 3-fluoro-N-(3-fluoro-2-{2-[(2S,6R)-6-methyl-1-(phenylsulfonyl)piperazin-2-yl]ethyl}phenyl)-β-(3-fluorophenyl)-L-phenylalaninamide]
IC50: 55 nM

COC(=O)N[C@H](C(=O)Nc1cncc(F)c1CC[C@H]1CNC[C@H](C)N1S(=O)(=O)C1CC1)[C@@H](c1ccc(Cl)cc1)C(C)C [Example 179, (βR)-4-chloro-N-(4-{2-[(2S,6S)-1-(cyclopropylsulfonyl)-6-methylpiperazin-2-yl]ethyl}-5-fluoropyridin-3-yl)-Nα-(methoxycarbonyl)-β-(1-methylethyl)-L-phenylalaninamide]
IC50: 33 nM

COC(=O)N[C@H](C(=O)Nc1cccc(F)c1CC[C@H]1CNC[C@@H](C)N1S(=O)(=O)C1CC1)[C@@H](c1cccc(Cl)c1)C(C)C [Example 217, (βR)-3-chloro-N-(2-{2-[(2S,6R)-1-(cyclopropylsulfonyl)-6-methylpiperazin-2-yl]ethyl}-3-fluorophenyl)-Nα-(methoxycarbonyl)-β-(1-methylethyl)-L-phenylalaninamide]
IC50: 1800 nM

COC(=O)N[C@H](C(=O)Nc1cncc(F)c1CC[C@H]1CNC[C@H](C)N1S(=O)(=O)c1ccccc1)[C@@H](c1ccc(Cl)cc1)C1CCOCC1 [Example 274, (βR)-4-chloro-N-(5-fluoro-4-{2-[(2S,6S)-6-methyl-1-(phenylsulfonyl)piperazin-2-yl]ethyl}pyridin-3-yl)-Nα-(methoxycarbonyl)-β-(tetrahydro-2H-pyran-4-yl)-L-phenylalaninamide]
IC50: 22 nM

C[C@H]1CNC[C@H](CCc2c(F)cccc2NC(=O)[C@@H](N)[C@@H](c2ccc(F)cc2)c2cc(F)cc(F)c2)N1S(=O)(=O)c1ccccc1Cl [Example 229, (βS)-N-[2-(2-{(2S,6S)-1-[(2-chlorophenyl)sulfonyl]-6-methylpiperazin-2-yl}ethyl)-3-fluorophenyl]-β-(3,5-difluorophenyl)-4-fluoro-L-phenylalaninamide]
IC50: 350 nM

COC(=O)N[C@H](C(=O)Nc1cccc(F)c1CC[C@H]1CNC[C@H](C)N1S(=O)(=O)C1CC1)[C@@H](c1ccc(F)cc1)C1CCOCC1 [Example 115, (βR)-N-(2-{2-[(2S,6S)-1-(cyclopropylsulfonyl)-6-methylpiperazin-2-yl]ethyl}-3-fluorophenyl)-4-fluoro-Nα-(methoxycarbonyl)-β-(tetrahydro-2H-pyran-4-yl)-L-phenylalaninamide]
IC50: 45 nM

C[C@H]1CNC[C@H](CCc2c(F)cccc2NC(=O)[C@@H](N)[C@@H](c2ccc(Cl)cc2)c2cc(F)cc(F)c2)N1S(C)(=O)=O [Example 198, (βS)-4-chloro-β-(3,5-difluorophenyl)-N-(3-fluoro-2-{2-[(2S,6S)-6-methyl-1-(methylsulfonyl)piperazin-2-yl]ethyl}phenyl)-L-phenylalaninamide]
IC50: 21 nM

O=C(Nc1cccc(F)c1CC[C@H]1CNCCN1S(=O)(=O)c1ccccc1)[C@H](O)C(c1ccccc1)c1ccccc1 (single isomer, unassigned) [Example 365]
IC50: 68 nM

C[C@H]1CNC[C@H](CCc2c(F)cccc2NC(=O)[C@@H](N)[C@@H](c2ccc(Cl)cc2)C2CCOCC2)N1S(C)(=O)=O [Example 121, (βR)-4-chloro-N-(3-fluoro-2-{2-[(2S,6S)-6-methyl-1-(methylsulfonyl)piperazin-2-yl]ethyl}phenyl)-β-(tetrahydro-2H-pyran-4-yl)-L-phenylalaninamide]
IC50: 72 nM

C[C@@H]1CNC[C@H](CCc2c(F)cncc2NC(=O)[C@@H](N)[C@@H](c2ccc(Cl)cc2)C2CCOCC2)N1S(=O)(=O)c1ccc(Cl)cc1 [Example 298, (βR)-4-chloro-N-[4-(2-{(2S,6R)-1-[(4-chlorophenyl)sulfonyl]-6-methylpiperazin-2-yl}ethyl)-5-fluoropyridin-3-yl]-β-(tetrahydro-2H-pyran-4-yl)-L-phenylalaninamide]
IC50: 36 nM

COC(=O)N[C@H](C(=O)Nc1cccc(F)c1CC[C@H]1CNCC2(CC2)CN1S(=O)(=O)c1ccccc1)[C@@H](c1ccc(F)cc1)C1CCOCC1 [Example 20, Methyl ((2S,3R)-1-((3-fluoro-2-(2-((S)-5-(phenylsulfonyl)-5,8-diazaspiro[2.6]nonan-6-yl)ethyl)phenyl)amino)-3-(4-fluorophenyl)-1-oxo-3-(tetrahydro-2H-pyran-4-yl)propan-2-yl)carbamate]
IC50: 21 nM

COC(=O)N[C@H](C(=O)Nc1cccc(F)c1CC[C@H]1CNC[C@H](C)N1S(=O)(=O)C1CC1)[C@H](c1cccc(F)c1)c1cccc(Cl)c1 [Example 175, (βR)-3-chloro-N-(2-{2-[(2S,6S)-1-(cyclopropylsulfonyl)-6-methylpiperazin-2-yl]ethyl}-3-fluorophenyl)-β-(3-fluorophenyl)-Nα-(methoxycarbonyl)-L-phenylalaninamide]
IC50: 110 nM

COC(=O)N[C@H](C(=O)Nc1cccc(F)c1CC[C@H]1CNCCN1S(=O)(=O)c1ccccc1)[C@@H](c1ccc(Cl)cc1)c1cccc(F)c1 [Example 52, (βS)-4-chloro-β-(3-fluorophenyl)-N-(3-fluoro-2-{2-[(2S)-1-(phenylsulfonyl)piperazin-2-yl]ethyl}phenyl)-Nα-(methoxycarbonyl)-L-phenylalaninamide]
IC50: 9.2 nM

COC(=O)N[C@H](C(=O)Nc1cccc(F)c1CC[C@H]1CNC[C@H](C)N1S(C)(=O)=O)[C@H](c1cccc(F)c1)c1cccc(Cl)c1 [Example 174, (βR)-3-chloro-N-(3-fluoro-2-{2-[(2S,6S)-6-methyl-1-(methylsulfonyl)piperazin-2-yl]ethyl}phenyl)-β-(3-fluorophenyl)-Nα-(methoxycarbonyl)-L-phenylalaninamide]
IC50: 99 nM

C[C@H]1CNC[C@H](CCc2c(F)cccc2NC(=O)[C@@H](N)[C@H](c2cccc(F)c2)c2cccc(Cl)c2)N1S(=O)(=O)c1ccccc1 [Example 154, (βR)-3-chloro-N-(3-fluoro-2-{2-[(2S,6S)-6-methyl-1-(phenylsulfonyl)piperazin-2-yl]ethyl}phenyl)-β-(3-fluorophenyl)-L-phenylalaninamide]
IC50: 65 nM
